Experimental data reported in ChEMBL document CHEMBL1201862, “PubChem BioAssay data set” (2004).
Calls of active or inactive are those of the source.

What was measured:
[1] = system: HEK293; assay: inhibition of NOD1-driven NF-kB reporter – cell-based, luminescence, uHTS, primary screen (AID 1578); assay type: functional; conditions: Homo sapiens
[2] = system: Streptococcus sp. 'group A'; assay: Streptococcus pyogenes SK(-)GAS viability under kanamycin – luminescence, BacTiterGlo, confirmation, counter-screen for streptokinase expression inhibitor project, dose response (AID 1900); assay type: functional, organism-based
[3] = system: HEK293; assay: cells; assay type: functional, cell-based; conditions: Homo sapiens
[4] = system: HEK293; assay: cells; assay type: functional, cell-based; conditions: Homo sapiens; remark: listed apart in the source
[5] = biological target: T1, Nucleotide-binding oligomerization domain-containing protein 2 (Homo sapiens, UniProt Q9HC29); assay: inhibition of NOD2-driven NF-kB reporter – cell-based, luminescence, uHTS, HEK293 (AID 1566); assay type: functional
T1 sequence (Q9HC29 whole entry, the tested form may be a part): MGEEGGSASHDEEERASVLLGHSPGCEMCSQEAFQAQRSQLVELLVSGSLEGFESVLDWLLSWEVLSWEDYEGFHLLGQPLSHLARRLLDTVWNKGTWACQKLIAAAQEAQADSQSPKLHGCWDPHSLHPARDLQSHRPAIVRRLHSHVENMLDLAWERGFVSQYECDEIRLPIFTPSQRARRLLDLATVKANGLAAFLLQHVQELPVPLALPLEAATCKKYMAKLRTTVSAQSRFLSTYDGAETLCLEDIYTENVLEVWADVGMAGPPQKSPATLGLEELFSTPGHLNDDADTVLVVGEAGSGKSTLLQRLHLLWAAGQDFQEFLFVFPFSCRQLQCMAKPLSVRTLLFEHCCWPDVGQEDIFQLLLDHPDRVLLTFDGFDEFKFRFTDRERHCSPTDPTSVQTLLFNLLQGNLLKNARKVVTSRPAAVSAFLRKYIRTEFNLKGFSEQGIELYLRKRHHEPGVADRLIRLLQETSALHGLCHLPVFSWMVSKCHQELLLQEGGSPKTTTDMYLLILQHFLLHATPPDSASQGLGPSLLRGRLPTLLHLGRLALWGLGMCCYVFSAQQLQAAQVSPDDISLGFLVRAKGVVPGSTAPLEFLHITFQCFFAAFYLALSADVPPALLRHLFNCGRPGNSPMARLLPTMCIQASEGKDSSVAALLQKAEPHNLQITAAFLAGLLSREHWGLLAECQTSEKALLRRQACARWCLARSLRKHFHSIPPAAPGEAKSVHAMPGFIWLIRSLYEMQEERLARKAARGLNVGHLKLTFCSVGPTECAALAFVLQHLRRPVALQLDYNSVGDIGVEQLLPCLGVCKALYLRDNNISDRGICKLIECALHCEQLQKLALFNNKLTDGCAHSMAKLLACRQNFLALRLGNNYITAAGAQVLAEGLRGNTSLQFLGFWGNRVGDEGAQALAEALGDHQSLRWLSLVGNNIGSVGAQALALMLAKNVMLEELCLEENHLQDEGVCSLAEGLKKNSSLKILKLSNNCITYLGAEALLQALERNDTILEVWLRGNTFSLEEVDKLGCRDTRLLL

[6] = system: HEK293; assay: NOD2 signaling inhibitors in MDP-stimulated cells, cell-based, uHTS, luminescence (AID 2001); assay type: functional; conditions: Homo sapiens
[7] = system: HEK293; assay: cells; assay type: functional, cell-based; conditions: Homo sapiens; remark: listed apart in the source
[8] = system: Streptococcus; assay: GAS UMAA2166 growth inhibition – luminescence, BacTiterGlo, counter-screen for streptokinase expression inhibitor project, dose response (AID 1915); assay type: functional, organism-based;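 further: potency for reduction of bacterial viability or growth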
[9] = biological target: Tumor necrosis factor (Homo sapiens, UniProt P01375); assay: analog potency on TNFa NF-kB signaling – cell-based, revised, SAR follow-up (AID 2337); assay type: functional
[10] = biological target: T2, Nucleotide-binding oligomerization domain-containing protein 1 (Homo sapiens, UniProt Q9Y239); assay: blockers of NOD1 pathway activity – revised, SAR follow-up (AID 2333); assay type: functional
T2 sequence (Q9Y239 whole entry): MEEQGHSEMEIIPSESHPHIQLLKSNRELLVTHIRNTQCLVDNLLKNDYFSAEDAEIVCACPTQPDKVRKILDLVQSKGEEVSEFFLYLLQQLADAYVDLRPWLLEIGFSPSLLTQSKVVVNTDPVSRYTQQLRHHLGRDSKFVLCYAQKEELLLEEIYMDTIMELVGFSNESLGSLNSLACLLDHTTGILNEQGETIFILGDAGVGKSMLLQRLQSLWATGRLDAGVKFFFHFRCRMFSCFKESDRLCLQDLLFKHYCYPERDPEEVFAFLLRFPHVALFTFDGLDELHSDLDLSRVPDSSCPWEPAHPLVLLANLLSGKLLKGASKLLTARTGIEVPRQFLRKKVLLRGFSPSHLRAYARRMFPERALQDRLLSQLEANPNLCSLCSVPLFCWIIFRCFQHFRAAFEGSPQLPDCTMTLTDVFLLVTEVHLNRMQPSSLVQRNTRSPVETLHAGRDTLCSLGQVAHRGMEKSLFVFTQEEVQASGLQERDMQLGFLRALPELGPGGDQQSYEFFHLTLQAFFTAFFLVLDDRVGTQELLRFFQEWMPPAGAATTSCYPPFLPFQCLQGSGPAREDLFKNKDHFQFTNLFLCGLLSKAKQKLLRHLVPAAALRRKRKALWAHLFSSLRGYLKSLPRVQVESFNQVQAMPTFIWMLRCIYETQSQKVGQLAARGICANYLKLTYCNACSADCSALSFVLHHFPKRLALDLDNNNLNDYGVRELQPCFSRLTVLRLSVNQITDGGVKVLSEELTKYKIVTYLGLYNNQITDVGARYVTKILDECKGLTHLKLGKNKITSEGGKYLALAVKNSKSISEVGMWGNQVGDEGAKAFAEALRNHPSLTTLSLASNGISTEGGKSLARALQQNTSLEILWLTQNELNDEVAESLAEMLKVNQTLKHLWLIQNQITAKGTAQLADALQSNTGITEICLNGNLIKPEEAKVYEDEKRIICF

[11] = biological target: T1, Nucleotide-binding oligomerization domain-containing protein 2; assay: PubChem AID 2334; assay type: functional
[12] = system: HEK293; assay: cells; conditions: Homo sapiens
[13] = biological target: T3, Voltage-gated N-type calcium channel alpha-1B subunit/Amyloid beta A4 precursor protein-binding family A member 1 (Homo sapiens, UniProt Q00975+Q02410); assay type: protein assay
T3 sequence (Q00975 whole entry): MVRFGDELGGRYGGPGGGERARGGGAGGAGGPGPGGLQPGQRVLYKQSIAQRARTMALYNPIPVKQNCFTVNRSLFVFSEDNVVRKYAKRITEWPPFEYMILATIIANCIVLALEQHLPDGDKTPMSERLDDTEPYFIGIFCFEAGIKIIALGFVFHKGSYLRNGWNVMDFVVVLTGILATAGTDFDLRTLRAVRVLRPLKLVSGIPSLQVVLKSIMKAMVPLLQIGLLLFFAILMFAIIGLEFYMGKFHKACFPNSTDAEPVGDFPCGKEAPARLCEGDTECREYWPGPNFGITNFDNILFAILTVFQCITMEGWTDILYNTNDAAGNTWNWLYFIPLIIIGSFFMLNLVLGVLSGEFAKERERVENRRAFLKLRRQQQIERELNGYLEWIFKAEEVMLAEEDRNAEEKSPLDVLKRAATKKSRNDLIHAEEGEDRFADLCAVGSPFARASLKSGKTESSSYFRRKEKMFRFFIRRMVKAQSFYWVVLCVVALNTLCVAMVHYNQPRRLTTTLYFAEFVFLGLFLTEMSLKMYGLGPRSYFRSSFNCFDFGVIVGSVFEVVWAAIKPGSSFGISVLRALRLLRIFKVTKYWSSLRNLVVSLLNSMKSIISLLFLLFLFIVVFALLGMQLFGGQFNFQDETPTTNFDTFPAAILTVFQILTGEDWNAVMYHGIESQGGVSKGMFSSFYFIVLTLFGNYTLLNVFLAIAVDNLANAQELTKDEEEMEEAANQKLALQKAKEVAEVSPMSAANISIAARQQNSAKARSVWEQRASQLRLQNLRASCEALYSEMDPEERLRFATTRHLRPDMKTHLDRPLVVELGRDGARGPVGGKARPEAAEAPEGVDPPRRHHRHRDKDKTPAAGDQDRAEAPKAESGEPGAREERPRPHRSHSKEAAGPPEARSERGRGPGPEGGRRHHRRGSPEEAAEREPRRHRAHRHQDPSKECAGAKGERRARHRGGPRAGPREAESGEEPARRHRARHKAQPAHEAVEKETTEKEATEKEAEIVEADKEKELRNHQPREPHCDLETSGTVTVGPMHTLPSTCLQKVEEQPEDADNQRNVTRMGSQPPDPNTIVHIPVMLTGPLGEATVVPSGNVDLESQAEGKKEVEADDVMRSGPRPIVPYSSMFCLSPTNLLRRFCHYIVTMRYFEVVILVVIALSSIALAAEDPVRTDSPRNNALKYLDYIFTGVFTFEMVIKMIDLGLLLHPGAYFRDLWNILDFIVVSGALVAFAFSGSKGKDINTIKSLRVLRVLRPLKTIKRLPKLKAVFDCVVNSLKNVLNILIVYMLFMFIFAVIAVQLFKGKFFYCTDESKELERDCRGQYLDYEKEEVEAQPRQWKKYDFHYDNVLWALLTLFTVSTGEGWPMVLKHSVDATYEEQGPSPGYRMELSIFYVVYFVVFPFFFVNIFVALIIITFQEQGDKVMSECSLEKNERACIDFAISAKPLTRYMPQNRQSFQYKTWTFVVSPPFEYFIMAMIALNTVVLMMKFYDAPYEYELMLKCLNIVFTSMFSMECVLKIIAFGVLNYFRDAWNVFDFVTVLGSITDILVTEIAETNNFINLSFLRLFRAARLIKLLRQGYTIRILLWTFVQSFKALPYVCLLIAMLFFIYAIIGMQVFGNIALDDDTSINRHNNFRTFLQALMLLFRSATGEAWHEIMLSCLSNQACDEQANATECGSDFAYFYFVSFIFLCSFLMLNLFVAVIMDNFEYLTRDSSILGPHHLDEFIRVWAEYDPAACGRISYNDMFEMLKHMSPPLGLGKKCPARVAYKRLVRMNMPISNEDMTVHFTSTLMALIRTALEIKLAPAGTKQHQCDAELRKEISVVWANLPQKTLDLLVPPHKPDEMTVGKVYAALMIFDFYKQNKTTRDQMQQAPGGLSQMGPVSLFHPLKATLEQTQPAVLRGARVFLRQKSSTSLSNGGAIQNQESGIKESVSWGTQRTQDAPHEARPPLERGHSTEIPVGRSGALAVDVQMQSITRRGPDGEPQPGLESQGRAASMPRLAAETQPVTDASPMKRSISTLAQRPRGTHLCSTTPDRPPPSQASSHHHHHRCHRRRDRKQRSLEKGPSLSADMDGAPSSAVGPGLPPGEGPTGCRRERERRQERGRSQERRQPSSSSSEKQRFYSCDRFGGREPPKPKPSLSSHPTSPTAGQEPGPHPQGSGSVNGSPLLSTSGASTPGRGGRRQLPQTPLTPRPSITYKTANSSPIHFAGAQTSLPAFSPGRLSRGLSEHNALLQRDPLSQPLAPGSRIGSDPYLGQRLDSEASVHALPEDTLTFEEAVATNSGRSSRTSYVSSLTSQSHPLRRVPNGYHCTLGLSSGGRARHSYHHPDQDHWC
T3 sequence (Q02410 whole entry): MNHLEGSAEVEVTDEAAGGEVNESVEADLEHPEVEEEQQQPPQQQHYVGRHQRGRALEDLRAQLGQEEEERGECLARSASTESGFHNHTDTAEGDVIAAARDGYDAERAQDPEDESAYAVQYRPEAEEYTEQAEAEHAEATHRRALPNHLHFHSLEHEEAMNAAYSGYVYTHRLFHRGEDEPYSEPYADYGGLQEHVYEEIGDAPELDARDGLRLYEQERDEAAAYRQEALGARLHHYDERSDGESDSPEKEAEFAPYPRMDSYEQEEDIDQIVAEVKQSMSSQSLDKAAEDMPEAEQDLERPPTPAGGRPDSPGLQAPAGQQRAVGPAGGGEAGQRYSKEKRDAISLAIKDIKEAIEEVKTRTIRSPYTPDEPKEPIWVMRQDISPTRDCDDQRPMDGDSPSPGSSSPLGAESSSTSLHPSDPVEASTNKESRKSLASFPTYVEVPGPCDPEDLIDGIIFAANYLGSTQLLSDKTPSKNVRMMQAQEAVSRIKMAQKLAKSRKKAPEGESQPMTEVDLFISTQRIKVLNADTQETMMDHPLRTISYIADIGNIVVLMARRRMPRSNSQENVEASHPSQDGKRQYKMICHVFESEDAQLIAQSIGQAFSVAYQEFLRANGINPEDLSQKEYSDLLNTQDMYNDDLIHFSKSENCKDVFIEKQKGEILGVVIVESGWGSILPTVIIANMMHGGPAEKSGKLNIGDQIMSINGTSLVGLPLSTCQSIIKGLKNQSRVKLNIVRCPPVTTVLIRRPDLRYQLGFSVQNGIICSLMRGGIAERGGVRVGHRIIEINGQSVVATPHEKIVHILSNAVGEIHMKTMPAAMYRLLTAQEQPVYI

[14] = biological target: Large T antigen (Simian virus 40, UniProt P03070); assay type: functional, Betapolyomavirus macacae;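 further: Confirmatory-stage PubChem screen for compounds that inhibit SV40 T antigen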
[15] = biological target: T3, Voltage-gated N-type calcium channel alpha-1B subunit/Amyloid beta A4 precursor protein-binding family A member 1; assay type: protein assay; remark: listed apart in the source
[16] = biological target: Induced myeloid leukemia cell differentiation protein Mcl-1 (Homo sapiens, UniProt Q07820); assay type: functional
[17] = biological target: T4, Eukaryotic translation initiation factor 2-alpha kinase 3 (Homo sapiens, UniProt Q9NZJ5); assay: Dose response cell-based high-throughput screening assay to measure PERK inhibition. [Related pubchem assays: 1416 ]; assay type: functional
T4 sequence (Q9NZJ5 whole entry): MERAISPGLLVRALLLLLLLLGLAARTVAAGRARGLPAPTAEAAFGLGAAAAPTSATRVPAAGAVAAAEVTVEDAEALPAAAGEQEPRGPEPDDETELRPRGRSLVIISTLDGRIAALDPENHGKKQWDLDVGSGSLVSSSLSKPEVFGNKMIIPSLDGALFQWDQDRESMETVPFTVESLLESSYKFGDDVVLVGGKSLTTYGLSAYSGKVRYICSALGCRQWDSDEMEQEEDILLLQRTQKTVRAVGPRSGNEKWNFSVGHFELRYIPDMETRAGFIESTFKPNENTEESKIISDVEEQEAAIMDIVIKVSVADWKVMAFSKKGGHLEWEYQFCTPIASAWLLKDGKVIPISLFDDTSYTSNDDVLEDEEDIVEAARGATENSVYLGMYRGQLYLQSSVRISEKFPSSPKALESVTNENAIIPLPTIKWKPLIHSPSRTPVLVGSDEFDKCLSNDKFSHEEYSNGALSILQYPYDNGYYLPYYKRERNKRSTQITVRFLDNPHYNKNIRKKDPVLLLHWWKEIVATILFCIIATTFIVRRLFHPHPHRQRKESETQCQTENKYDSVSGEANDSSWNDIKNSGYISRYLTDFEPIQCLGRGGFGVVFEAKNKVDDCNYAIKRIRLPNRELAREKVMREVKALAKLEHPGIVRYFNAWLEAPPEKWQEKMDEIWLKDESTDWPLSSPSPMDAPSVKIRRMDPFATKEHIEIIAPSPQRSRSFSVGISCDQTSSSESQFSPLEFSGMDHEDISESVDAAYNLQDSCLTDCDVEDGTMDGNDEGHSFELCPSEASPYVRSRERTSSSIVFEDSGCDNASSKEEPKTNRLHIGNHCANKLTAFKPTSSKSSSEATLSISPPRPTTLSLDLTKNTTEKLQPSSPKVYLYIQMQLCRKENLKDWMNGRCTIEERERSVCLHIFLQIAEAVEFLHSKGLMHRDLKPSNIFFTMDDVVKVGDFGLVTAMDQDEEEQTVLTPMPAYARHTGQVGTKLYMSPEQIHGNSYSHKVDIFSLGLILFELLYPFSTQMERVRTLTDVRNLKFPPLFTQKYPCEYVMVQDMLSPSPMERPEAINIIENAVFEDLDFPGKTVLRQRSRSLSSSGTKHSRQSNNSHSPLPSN

[18] = biological target: T4, Eukaryotic translation initiation factor 2-alpha kinase 3; assay: Counterscreen assay for PERK inhibitors: Dose response cell-based high throughput screening assay to measure inhibition of PERK at 6 hours. [Related pubchem assays: 1522, 1416 ]; assay type: functional
[19] = system: HeLa; assay: Cytotoxicity counterscreen assay for transcriptional activators of heat shock protein 70 (Hsp70). [Related pubchem assays: 1203, 1252 ]; assay type: functional; conditions: Homo sapiens;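 further: cells exposed to compound for 16 hours before readout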
[20] = biological target: Transitional endoplasmic reticulum ATPase (Homo sapiens, UniProt P55072, C522A); assay: C522A mutant p97 ATPase inhibitors, dose response, counter-screen for p97 inhibitor project, biochemical, luminescence (AID 1544)
[21] = biological target: Transitional endoplasmic reticulum ATPase (Homo sapiens, UniProt P55072); assay: p97 ATPase inhibitors, dose response, biochemical (AID 1534)
[22] = biological target: Eukaryotic translation initiation factor 4E (Mus musculus, UniProt P63073); assay: blockers of eIF4G binding by eIF4E – biochemical, TR-FRET, dose response (AID 855); assay type: functional;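 further: potency for disrupting eIF4E binding to eIF4GI seen as loss of FRET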
Chain of Eukaryotic translation initiation factor 4E (P63073 whole entry): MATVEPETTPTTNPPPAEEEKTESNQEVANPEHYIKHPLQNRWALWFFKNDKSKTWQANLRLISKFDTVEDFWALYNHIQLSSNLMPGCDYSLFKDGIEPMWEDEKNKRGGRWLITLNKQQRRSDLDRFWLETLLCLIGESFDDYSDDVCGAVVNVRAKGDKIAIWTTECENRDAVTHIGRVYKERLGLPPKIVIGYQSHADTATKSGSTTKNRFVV

[23] = biological target: T5, Rac GTPase-activating protein 1 (Homo sapiens, UniProt Q9H0H5); assay: blockers of MgcRacGAP-driven Rac1 GTP hydrolysis – biochemical, ADP Hunter fluorescence, primary and confirmatory, confirmation (AID 624330); assay type: functional
T5 sequence (Q9H0H5 whole entry): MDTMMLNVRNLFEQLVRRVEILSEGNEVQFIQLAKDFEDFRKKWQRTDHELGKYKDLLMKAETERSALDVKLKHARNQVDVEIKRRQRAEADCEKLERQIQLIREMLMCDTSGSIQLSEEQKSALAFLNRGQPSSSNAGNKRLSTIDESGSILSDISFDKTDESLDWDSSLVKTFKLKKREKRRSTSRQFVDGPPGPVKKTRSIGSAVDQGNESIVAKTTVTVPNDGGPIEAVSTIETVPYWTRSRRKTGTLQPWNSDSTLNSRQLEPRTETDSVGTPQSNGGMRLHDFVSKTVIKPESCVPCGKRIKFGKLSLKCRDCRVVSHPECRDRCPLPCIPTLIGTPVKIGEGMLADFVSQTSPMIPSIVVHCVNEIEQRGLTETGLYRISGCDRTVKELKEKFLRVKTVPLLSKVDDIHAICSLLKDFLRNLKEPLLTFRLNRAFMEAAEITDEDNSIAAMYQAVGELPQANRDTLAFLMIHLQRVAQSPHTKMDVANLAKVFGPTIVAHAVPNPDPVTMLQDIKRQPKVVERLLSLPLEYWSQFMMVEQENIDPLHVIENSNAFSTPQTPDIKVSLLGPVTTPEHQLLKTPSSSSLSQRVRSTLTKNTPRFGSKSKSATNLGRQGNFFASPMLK

[24] = biological target: DNA dC->dU-editing enzyme APOBEC-3G (Homo sapiens, UniProt Q9HC16); assay: Dose Response confirmation of small molecule APOBEC3G DNA Deaminase Inhibitors via a fluorescence-based single-stranded DNA deaminase assay. [Related pubchem assays (depositor defined):AID493012, AID493028]; assay type: functional
Chain of DNA dC->dU-editing enzyme APOBEC-3G (Q9HC16 whole entry): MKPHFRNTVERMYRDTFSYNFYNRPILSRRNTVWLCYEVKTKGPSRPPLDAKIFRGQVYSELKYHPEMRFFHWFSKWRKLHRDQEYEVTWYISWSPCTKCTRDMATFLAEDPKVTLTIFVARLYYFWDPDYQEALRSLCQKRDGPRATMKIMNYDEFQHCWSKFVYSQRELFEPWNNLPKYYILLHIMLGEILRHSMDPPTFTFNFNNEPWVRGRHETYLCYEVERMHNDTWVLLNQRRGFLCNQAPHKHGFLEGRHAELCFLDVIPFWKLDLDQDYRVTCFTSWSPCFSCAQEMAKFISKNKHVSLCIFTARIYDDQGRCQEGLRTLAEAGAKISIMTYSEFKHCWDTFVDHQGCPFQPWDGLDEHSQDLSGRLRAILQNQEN

[25] = biological target: Melanin-concentrating hormone receptor 1 (Homo sapiens, UniProt Q99705); assay: Late-stage fluorescence-based counterscreen for antagonists of the G-protein coupled receptor 7 (GPR7): cell-based dose response assay to identify antagonists of the melanin-concentrating hormone receptor 1 (MCHR1). [Related pubchem assays (depositor defined):AID1861, AID1880, AID1952, AID2148, AID2251, AID2257, AID485339]; assay type: functional;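 further: stimulated with 30 nM MCH peptide agonist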
[26] = biological target: DNA dC->dU-editing enzyme APOBEC-3A (Homo sapiens, UniProt P31941); assay: A3A deaminase inhibition for selectivity – biochemical, dose response (AID 504722); assay type: functional
[27] = biological target: G-protein coupled receptor 55 (Homo sapiens, UniProt Q9Y2T6); assay: selective activators of receptor GPR55 – imaging, U2OS cells, beta-arrestin-GFP redistribution, primary screen (AID 1961); assay type: functional
[28] = biological target: Paired box protein Pax-8 (Homo sapiens, UniProt Q06710); assay: PAX8 transcriptional activity inhibition in RMG-I – RMG-I cells, luciferase, cherry-pick, dose response (AID 687027); assay type: functional, cell-based;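 further: luciferase reporter driven by Pax8 target thyroperoxidase promoter measured by SteadyGlo luminescence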
[29] = biological target: Bcl-2-like protein 10 (Homo sapiens, UniProt Q9HD36); assay: Bcl-B/TR3 peptide binding disruption – biochemical, fluorescence polarization, FITC-TR3 peptide, selectivity assay for Bfl-1 inhibitor project, primary screen (AID 748);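 further: fluorescence polarization from a fluorescein-labelled TR3 peptide binding purified Bcl-B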
Chain of Bcl-2-like protein 10 (Q9HD36 whole entry): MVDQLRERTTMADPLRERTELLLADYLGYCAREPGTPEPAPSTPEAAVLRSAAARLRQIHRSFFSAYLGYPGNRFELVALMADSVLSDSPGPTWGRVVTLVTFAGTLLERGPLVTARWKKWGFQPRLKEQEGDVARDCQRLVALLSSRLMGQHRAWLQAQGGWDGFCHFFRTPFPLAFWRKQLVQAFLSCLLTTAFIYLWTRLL

SMILES: Cc1cc(NC(=O)c2ccc(C)s2)n(-c2nc3ccccc3[nH]2)n1
- EC50 [1]: 4.06 µM (active)
- EC50 [2]: 3.04 µM (active)
- IC50 [3]: > 20 µM (inactive)
- IC50 [4]: > 20 µM (inactive)
- EC50 [5]: > 20 µM (inactive)
- IC50 [6]: 4.57 µM (inactive)
- IC50 [7]: > 20 µM (inactive)
- EC50 [8]: 5.48 µM (active)
- IC50 [9]: > 20 µM (inactive)
- IC50 [10]: > 20 µM (inactive)
- IC50 [11]: > 20 µM (inactive)
- IC50 [12]: > 20 µM (inactive)

SMILES: COc1ccc(CC(=O)n2[nH]c(=O)ccc2=O)cc1OC
- IC50 [13]: 46.1 µM (active)
- IC50 [14]: > 100 µM (active)
- IC50 [15]: 1.53 µM (active)
- IC50 [16]: 18.2 µM (active)

SMILES: N#Cc1c(NCCO)ccc([N+](=O)[O-])c1NCCO
- EC50 [17]: > 55.7 µM (not active)
- EC50 [18]: > 55.7 µM (not active)

SMILES: CCOC(=O)c1sc2nc(C)nc(Nc3ccccc3)c2c1C
- CC50 [19]: > 99 µM (not active)

SMILES: Cc1no[n+]([O-])c1COc1ccccc1/C=C1\NC(=S)NC1=O
- IC50 [20]: > 50 µM (not active)
- IC50 [21]: > 50 µM (not active)

SMILES: O=C(C1CCN(Cc2cc(Cl)ccc2O)CC1)N1CCN(Cc2ccccc2)CC1
- IC50 [22]: > 64 µM (inactive)
- IC50 [23]: 81 µM (active)

SMILES: CN(C)CC(c1ccccc1)c1ccccc1
- EC50 [17]: > 55.7 µM (not active)
- EC50 [18]: > 55.7 µM (not active)

SMILES: COCc1c(N)c(C)nc(Cl)c1C#N
- IC50 [13]: 13.9 µM (active)
- IC50 [15]: > 50 µM (inactive)
- IC50 [22]: 50 µM (inactive)
- IC50 [24]: 13.3 µM (active)

SMILES: COc1ccc(Oc2c(CO)cnn(-c3ccc(C(C)C)cc3)c2=O)cc1
- IC50 [25]: 7.4 µM (active)

SMILES: Sc1nnc(-c2ccco2)n1-c1ccc(Br)cc1
- IC50 [26]: > 100 µM (inactive)
- IC50 [24]: 1.5 µM (active)

SMILES: CC(C)C(=O)Nc1nc2ccccc2n1Cc1ccc(Cl)cc1
- IC50 [9]: > 20 µM (inactive)
- IC50 [10]: 16.7 µM (active)
- IC50 [11]: > 20 µM (inactive)
- IC50 [12]: > 20 µM (inactive)

SMILES: CCCN(CCC)Cc1c(C(=O)N/N=C/C(C)=C\c2ccco2)nnn1-c1nonc1N
- EC50 [27]: 0.625 µM (active)
- AC50 [28]: 2.86 µM (active)

SMILES: Cc1ccc(N2CN=c3s/c(=C\c4cccnc4)c(=O)n3C2)cc1
- IC50 [29]: > 100 µM (inactive)

SMILES: c1nnnn1C12CC3CC(CC(C3)C1)C2
- IC50 [29]: > 100 µM (inactive)
